“And” between values parts separate entries of the source, which are not always exact repeats. Identical values can stand only once. Toxic doses and inconclusive results are not listed.
Tested on: BDF1 mice, P388 leukemia ip, median survival T/C
Experiment: NCI In Vivo Anticancer Drug Screen. Data for tumor model P388 Leukemia (intraperitoneal) in B6D2F1 (BDF1) mice
Conditions: endpoint: median survival time, higher = longer survival
Summary of the method: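 In tumour-bearing mice, survival after compound treatment is set against the vehicle group and given as a quotient.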

[1] = dose: 100.0 mg/kg/injection, schedule: Q04DX003 (ip), vehicle: saline with Tween-80
[2] = dose: 200.0 mg/kg/injection, schedule: Q04DX003 (ip), vehicle: saline with Tween-80
[3] = dose: 400.0 mg/kg/injection, schedule: Q04DX003 (ip), vehicle: saline with Tween-80
[4] = dose: 100.0 mg/kg/injection, schedule: Q01DX009 (ip), vehicle: saline with Tween-80
[5] = dose: 200.0 mg/kg/injection, schedule: Q01DX009 (ip), vehicle: saline with Tween-80
[6] = dose: 400.0 mg/kg/injection, schedule: Q01DX009 (ip), vehicle: saline with Tween-80
[7] = dose: 25.0 mg/kg/injection, schedule: Q01DX009 (ip), vehicle: Klucel (hydroxypropylcellulose) (HPC)
[8] = dose: 50.0 mg/kg/injection, schedule: Q01DX009 (ip), vehicle: Klucel (hydroxypropylcellulose) (HPC)
[9] = dose: 6.25 mg/kg/injection, schedule: Q01DX009 (ip), vehicle: saline with Tween-80
[10] = dose: 12.5 mg/kg/injection, schedule: Q01DX009 (ip), vehicle: saline with Tween-80
[11] = dose: 25.0 mg/kg/injection, schedule: Q01DX009 (ip), vehicle: saline with Tween-80
[12] = dose: 50.0 mg/kg/injection, schedule: Q01DX009 (ip), vehicle: saline with Tween-80
[13] = dose: 100.0 mg/kg/injection, schedule: Q01DX009 (ip), vehicle: Klucel (hydroxypropylcellulose) (HPC)

Cc1ccc(NS(=O)(=O)c2ccccc2)nc1
T/C [1]: 112 % of control
T/C [2]: 116 % of control
T/C [3]: 96 % of control

OCCSc1ncc2cnccn12
T/C (dose: 100.0 mg/kg/injection, schedule: Q04DX003 (ip), vehicle: water): 109 % of control
T/C (dose: 200.0 mg/kg/injection, schedule: Q04DX003 (ip), vehicle: water): 109 % of control
T/C (dose: 400.0 mg/kg/injection, schedule: Q04DX003 (ip), vehicle: water): 109 % of control

CN(C)C(=S)NN
T/C (dose: 0.25 mg/kg/injection, schedule: Q01DX009 (ip), vehicle: saline with Tween-80): 90 % of control
T/C (dose: 0.5 mg/kg/injection, schedule: Q01DX009 (ip), vehicle: saline with Tween-80): 90 % of control
T/C (dose: 0.78 mg/kg/injection, schedule: Q04DX003 (ip), vehicle: saline with Tween-80): 100 % of control
T/C (dose: 1.0 mg/kg/injection, schedule: Q01DX009 (ip), vehicle: saline with Tween-80): 95 % of control
T/C (dose: 1.56 mg/kg/injection, schedule: Q04DX003 (ip), vehicle: saline with Tween-80): 105 % of control
T/C (dose: 3.12 mg/kg/injection, schedule: Q04DX003 (ip), vehicle: saline with Tween-80): 95 % of control and 105 % of control

CN(C)[C@@H]1C(=O)C(C(=O)NCNCCCC(=O)O)=C(O)[C@@]2(O)C(=O)C3=C(O)c4c(O)cccc4[C@@](C)(O)[C@H]3C[C@@H]12
T/C [4]: 95 % of control
T/C [5]: 104 % of control
T/C [6]: 104 % of control

NN(C(=O)c1ccccc1)c1ccccc1
T/C (dose: 12.5 mg/kg/injection, schedule: Q04DX003 (ip), vehicle: Klucel (hydroxypropylcellulose) (HPC)): 100 % of control
T/C [7]: 110 % of control
T/C (dose: 25.0 mg/kg/injection, schedule: Q04DX003 (ip), vehicle: Klucel (hydroxypropylcellulose) (HPC)): 100 % of control
T/C [8]: 100 % of control
T/C (dose: 50.0 mg/kg/injection, schedule: Q04DX003 (ip), vehicle: Klucel (hydroxypropylcellulose) (HPC)): 104 % of control
T/C (dose: 75.0 mg/kg/injection, schedule: Q04DX003 (ip), vehicle: Klucel (hydroxypropylcellulose) (HPC)): 104 % of control
T/C (dose: 115.0 mg/kg/injection, schedule: Q04DX003 (ip), vehicle: Klucel (hydroxypropylcellulose) (HPC)): 104 % of control
T/C (dose: 170.0 mg/kg/injection, schedule: Q04DX003 (ip), vehicle: Klucel (hydroxypropylcellulose) (HPC)): 109 % of control
T/C (dose: 255.0 mg/kg/injection, schedule: Q04DX003 (ip), vehicle: Klucel (hydroxypropylcellulose) (HPC)): 105 % of control
T/C (dose: 385.0 mg/kg/injection, schedule: Q04DX003 (ip), vehicle: Klucel (hydroxypropylcellulose) (HPC)): 110 % of control

CCN(CC)c1ccc(NC(=O)Nc2ccccc2C)cc1
T/C [1]: 95 % of control
T/C [2]: 95 % of control
T/C [3]: 90 % of control

CCCCCCCCCCNC1CC(OC2CC(O)(C(C)=O)Cc3c(O)c4c(c(O)c32)C(=O)c2c(OC)cccc2C4=O)OC(C)C1O (configuration not stated)
T/C (dose: 3.13 mg/kg/injection, schedule: Q01DX009 (ip), vehicle: water): 108 % of control
T/C (dose: 6.25 mg/kg/injection, schedule: Q01DX009 (ip), vehicle: water): 103 % of control

CCCNC(=S)NNC(=O)c1ccncc1
T/C [9]: 98 % of control
T/C [10]: 97 % of control
T/C [11]: 100 % of control
T/C [12]: 90 % of control
T/C [4]: 100 % of control

COc1cc2c3cc1Oc1c(O)c(OC)cc4c1C(Cc1cc5c(c(c1)Oc1ccc(cc1)CC3N(C)CC2)OCO5)N(C)CC4 (configuration not stated)
T/C (dose: 1.25 mg/kg/injection, schedule: Q01DX010 (ip), vehicle: saline): 90 % of control
T/C (dose: 2.5 mg/kg/injection, schedule: Q01DX010 (ip), vehicle: saline): 95 % of control
T/C (dose: 5.0 mg/kg/injection, schedule: Q01DX010 (ip), vehicle: saline): 90 % of control
T/C (dose: 10.0 mg/kg/injection, schedule: Q01DX010 (ip), vehicle: saline): 86 % of control

CC(C)C(C)/C=C\C(C)C1CCC2C3=CCC4CC(O)CCC4(C)C3CCC21C (configuration not stated)
T/C [9]: 100 % of control
T/C [10]: 101 % of control
T/C [11]: 94 % of control

CCN(CC)c1cccc(N)c1
T/C (dose: 50.0 mg/kg/injection, schedule: Q01DX009 (sc), vehicle: olive oil, sesame oil, peanut oil): 104 % of control
T/C (dose: 50.0 mg/kg/injection, schedule: Q04DX003 (sc), vehicle: olive oil, sesame oil, peanut oil): 100 % of control
T/C (dose: 100.0 mg/kg/injection, schedule: Q01DX009 (sc), vehicle: olive oil, sesame oil, peanut oil): 87 % of control
T/C (dose: 100.0 mg/kg/injection, schedule: Q04DX003 (sc), vehicle: olive oil, sesame oil, peanut oil): 104 % of control
T/C (dose: 200.0 mg/kg/injection, schedule: Q04DX003 (sc), vehicle: olive oil, sesame oil, peanut oil): 100 % of control

c1coc(-c2ncnc3c2Cc2ccccc2-3)c1
T/C [7]: 100 % of control
T/C [8]: 118 % of control
T/C [13]: 109 % of control
T/C (dose: 150.0 mg/kg/injection, schedule: Q01DX009 (ip), vehicle: Klucel (hydroxypropylcellulose) (HPC)): 91 % of control

CC(=O)OC/C(=N\Nc1ccc([N+](=O)[O-])cc1[N+](=O)[O-])c1ccccc1
T/C (dose: 3.13 mg/kg/injection, schedule: Q01DX001 (ip), vehicle: saline with Tween-80): 104 % of control
T/C (dose: 6.25 mg/kg/injection, schedule: Q01DX001 (ip), vehicle: saline with Tween-80): 100 % of control
T/C (dose: 12.5 mg/kg/injection, schedule: Q01DX001 (ip), vehicle: saline with Tween-80): 95 % of control

Cc1c(NC(=O)Nc2cccc(F)c2)c(=O)n(-c2ccccc2)n1C
T/C [4]: 120 % of control
T/C [5]: 95 % of control
T/C [6]: 90 % of control

Cc1ccc(C(=O)N=[N+]=[N-])o1
T/C [12]: 108 % of control

CCOC(=O)C(Cc1ccc(N(CCCl)CCCl)cc1)NC(=O)C(NC(C)=O)C(C)C (configuration not stated)
T/C (dose: 5.0 mg/kg/injection, schedule: Q04DX003 (ip), vehicle: water): 109 % of control
T/C (dose: 10.0 mg/kg/injection, schedule: Q04DX003 (ip), vehicle: water): 157 % of control
T/C (dose: 20.0 mg/kg/injection, schedule: Q04DX003 (ip), vehicle: water): 223 % of control
T/C (dose: 40.0 mg/kg/injection, schedule: Q04DX003 (ip), vehicle: water): 264 % of control
T/C (dose: 80.0 mg/kg/injection, schedule: Q04DX003 (ip), vehicle: water): 150 % of control

Cn1c(C(Cl)Cl)nc2ccccc2c1=O
T/C (dose: 12.5 mg/kg/injection, schedule: Q01DX009 (ip), vehicle: Klucel (hydroxypropylcellulose) (HPC)): 100 % of control
T/C [7]: 100 % of control
T/C [8]: 95 % of control
T/C (dose: 75.0 mg/kg/injection, schedule: Q01DX009 (ip), vehicle: Klucel (hydroxypropylcellulose) (HPC)): 100 % of control
T/C (dose: 115.0 mg/kg/injection, schedule: Q01DX009 (ip), vehicle: Klucel (hydroxypropylcellulose) (HPC)): 114 % of control
T/C (dose: 170.0 mg/kg/injection, schedule: Q01DX009 (ip), vehicle: Klucel (hydroxypropylcellulose) (HPC)): 95 % of control

CCOCN(COCC)c1cccc(Cl)c1
T/C [12]: 100 % of control and 115 % of control
T/C [4]: 118 % of control
T/C [5]: 118 % of control

COCCCNC1=C(C#N)C(=O)NC(c2cccs2)S1 (configuration not stated)
T/C [12]: 100 % of control
T/C [4]: 117 % of control
T/C [5]: 121 % of control

Cc1noc2ncnc(NCCCN(C)C)c12
T/C [12]: 99 % of control
T/C [4]: 99 % of control
T/C [5]: 102 % of control

Cc1nnc2ncnn2c1N(C)c1ccccc1
T/C (dose: 50.0 mg/kg/injection, schedule: Q04DX003 (ip), vehicle: saline with Tween-80): 100 % of control
T/C [1]: 95 % of control
T/C [2]: 100 % of control

CCOC(=O)C1CCC(C(=O)OCC)N1c1ccc(C=O)cc1 (configuration not stated)
T/C [13]: 122 % of control
T/C (dose: 100.0 mg/kg/injection, schedule: Q04DX003 (ip), vehicle: Klucel (hydroxypropylcellulose) (HPC)): 105 % of control
T/C (dose: 200.0 mg/kg/injection, schedule: Q01DX009 (ip), vehicle: Klucel (hydroxypropylcellulose) (HPC)): 105 % of control
T/C (dose: 200.0 mg/kg/injection, schedule: Q04DX003 (ip), vehicle: Klucel (hydroxypropylcellulose) (HPC)): 100 % of control
T/C (dose: 400.0 mg/kg/injection, schedule: Q01DX009 (ip), vehicle: Klucel (hydroxypropylcellulose) (HPC)): 122 % of control
T/C (dose: 400.0 mg/kg/injection, schedule: Q04DX003 (ip), vehicle: Klucel (hydroxypropylcellulose) (HPC)): 100 % of control

CCOC(=O)C(OCc1ccccc1)(C(=O)O)C(C)C (configuration not stated)
T/C [11]: 95 % of control
T/C [12]: 90 % of control
T/C [4]: 109 % of control
T/C [5]: 100 % of control
T/C [6]: 104 % of control
